Measurements: PMC9282638, “A Suite of Activity-Based Probes To Dissect the KLK Activome in Drug-Resistant Prostate Cancer” (Journal of the American Chemical Society, 2021)

Assays:
KLK2 = biological target: T1, KLK2 (Homo sapiens, UniProt P20151); assay: Inhibition of KLK2 after incubation with 50 µM probe (Figure S8); assay type: biochemical; conditions: 30 minutes
T1 construct: purchased R&D Systems
Protocol: Table S1: Antibodies used throughout this project
Protein Supplier Cat. No. Host /clonal Immunogen
KLK2 Abcam Ab124899 Rabbit Mono Synthetic peptide within amino […]
KLK3 SCBT sc-7316 Mouse Mono Full length KLK3 of human origin
KLK14 Abcam Ab128957 Rabbit Mono Synthetic peptide within the C- […]
Transferrin Abcam Ab66952 Rabbit Poly Full length Transferrin of human […]
HSP90 SCBT sc-69703 Mouse Mono Full length HSP90 of human
In gel-fluorescence: LNCaP conditioned media (50 µg) was treated with a fluorescent activity-based probe for 1 h. After 1 h, proteins were precipitated using the aforementioned procedure and resuspended in a 3:1 ratio of PBS and sample loading buffer to a concentration of 1 mg/mL. After boiling for 5 min, 10 µL of sample was loaded on to a hand cast 12 % Bis-Tris gel and proteins were separated by SDS-PAGE as described above. Gels were then scanned for fluorescence at the appropriate wavelength.
Immunoprecipitation: LNCaP conditioned media (100 µg) was treated with the appropriate ABP for 1h. Proteins were precipitated using the CHCl3/MeOH procedure outlined above and resuspended in RIPA buffer (20 mM Tris, 150 mM NaCl, 1 mM EDTA, 1mM EGTA, 1 % NP-40, 1 % sodium deoxycholate, 2.5 mM sodium pyrophosphate, 1 mM glycerophosphate, 1 mM Na3VO4 pH 7.5) to a concentration of 1 mg/mL. […]

KLK3 = biological target: T2, KLK3 (Homo sapiens, UniProt P07288); assay: Probe labeling of KLK3 in LNCaP conditioned media (in-gel fluorescence / streptavidin blot); assay type: biochemical; conditions: LNCaP CM, 1 h treatment
T2 construct: endogenous in cells; host or cells: LNCaP cells treated with 10 nM DHT; conditioned medium
T2 sequence (P07288 25-261): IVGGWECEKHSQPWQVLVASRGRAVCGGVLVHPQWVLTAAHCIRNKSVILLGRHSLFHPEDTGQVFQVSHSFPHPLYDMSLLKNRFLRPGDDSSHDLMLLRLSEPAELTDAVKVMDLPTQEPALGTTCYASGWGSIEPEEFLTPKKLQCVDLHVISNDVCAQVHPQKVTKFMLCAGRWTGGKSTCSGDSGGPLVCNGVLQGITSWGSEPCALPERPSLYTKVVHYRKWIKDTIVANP
Description: An optimized tetrapeptide designed to occupy the KLK S1–S4 subsites was envisaged for the ABP specificity element, grafted onto a peptidyl-diphenyl phosphonate (DPP) warhead which reacts specifically and exclusively with the Ser195 residue in the KLK3 active site.[21] […] We therefore replaced the boronic acid in 2 with the DPP moiety in 1 and capped the N-terminus with a tetramethyl rhodamine (TAMRA) fluorophore to afford 3, which served as a prototype ABP for KLK3. A mixed solid-phase and solution-phase approach was used for the synthesis of peptidyl-DPP compounds, as described previously (Figures S1 and S2).[24] […]
Despite exquisite selectivity, maximal KLK3 labeling was achieved only after treatment with 20 μM 3 for 1 h. We therefore optimized probe potency by systematically modifying each amino acid side chain in the P1–P4 positions of a morpholine-capped peptidyl-DPP inhibitor scaffold and determined the potency of each analogue using competitive-ABPP against 3.[25],[26] […] Second generation biotinylated 20 and fluorescent 21 ABPs (Figures 2G and S7) based on this scaffold retained exquisite selectivity for KLK3 in LNCaP CM, but in contrast to first-generation ABP 3 achieved maximum labeling at only 1 μM and readily detectable labeling down to 130 nM (Figures 2H and S7). […]

T1 sequence (P20151 25-261): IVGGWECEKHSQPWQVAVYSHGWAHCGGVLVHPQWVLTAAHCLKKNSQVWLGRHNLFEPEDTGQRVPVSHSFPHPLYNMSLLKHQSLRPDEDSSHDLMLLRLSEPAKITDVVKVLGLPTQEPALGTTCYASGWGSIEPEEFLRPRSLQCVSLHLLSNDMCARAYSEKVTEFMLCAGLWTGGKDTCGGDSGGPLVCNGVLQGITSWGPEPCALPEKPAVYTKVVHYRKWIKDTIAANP

## CCC[C@H](NC(=O)[C@H](CCC(N)=O)NC(=O)[C@H](CC(N)=O)NC(=O)CCCCCNC(=O)CCCC[C@@H]1SC[C@@H]2NC(=O)N[C@@H]21)C(=O)NC(c1ccc(C(N)=O)cc1)P(=O)(Oc1ccccc1)Oc1ccccc1 (stereo partly drawn) [compound 20]
KLK2
  inhibition of KLK2: no inhibition
KLK3
  concentration at which maximal KLK3 labeling was achieved: 1 µM
  lowest concentration with readily detectable KLK3 labeling: 130 nM
